Results on 18 compounds are retold here after article PMC9888480, “Carboranyl-1,8-naphthalimide intercalators induce lysosomal membrane permeabilization and ferroptosis in cancer cell lines” (Journal of Enzyme Inhibition and Medicinal Chemistry, 2023).

Read-outs that look alike come from different tables or passages of the source.

For assay [1], the system named is HepG2. Briefly: In vitro cytotoxic activity, MTT assay. To be noted: concentration required to inhibit cell growth by 50%. The class given is cell-based, human. The source says: The in vitro cytotoxic activity of the obtained carborane-1,8-naphthalimide conjugates was investigated by examining their cytotoxic effects using the MTT (3–(4,5-dimethylthiazol-2-yl)-2,5-diphenyltetrazolium bromide) dye assay[38]^,[39] against the human cancer cell line HepG2 established from hepatocellular carcinoma (for compounds 12–19 and 30–37) and against human lung fibroblasts (MRC-5) (for compounds 34–37). The IC50 values—the drug concentration (µM) required to inhibit cell growth by 50%—determined for the synthesised compounds are summarised in Table 2.
The cytotoxic properties of the synthesised compounds were evaluated using the human hepatocellular carcinoma cell line (HepG2) and human lung fibroblasts (MRC-5). The HepG2 and MRC-5 cell lines were purchased from American Type Culture Collection (ATCC, Manassas, VA, USA). The HepG2 cells were propagated in Eagle’s minimal essential medium (EMEM, ATCC, Manassas, VA, USA), supplemented with 10% inactivated foetal bovine serum (FBS, Life Technologies, Warsaw, Poland) and 100 units/ml penicillin G with […] streptomycin (Life Technologies, Warsaw, Poland). The cells were incubated at 37 °C in a humidified atmosphere containing 5% CO2. Upon reaching 80–90% confluency, the cells were harvested with 0.25% trypsin in 1 mM EDTA (Life Technologies, Warsaw, Poland) and transferred to 96-well microplates at 2 × 10^4 cells/well. After overnight incubation of cells at 37 °C in a humidified atmosphere containing 5% CO2, the culture medium was removed and replaced with a freshly prepared solution of compounds in the culture medium or medium itself as the control group. The stock solutions of each compound were prepared in DMSO at a concentration of 100 mM and were diluted with the growth medium supplemented with 10% FBS to ensure drug dissolution to obtain concentrations ranging from 0.1 to 1000 µM. Cytotoxicity was evaluated using the MTT assay. After incubation with the compounds, the cells were treated with MTT dye solution (5 mg/ml) for 2 h and lysed with a solvent solution containing DMF (45 ml), sodium dodecylsulfate (13.5 g), and distilled water (55 ml). After overnight incubation at 37 °C, optical density at 550 nm, with a reference wavelength of 670 nm, was measured in an ELISA reader (VarioskanLux, Thermo Scientific, Waltham, MA, USA). All determinations were carried out in triplicate. Results were calculated as the percentage of control group viability. The IC50 values of the compounds were calculated in an Excel add-in ED50V10.
(Formazan colour is commonly taken as a measure of viable cells.)

Assay [2] has as its system ct-DNA. Briefly: UV–vis spectra titration with ct-DNA (binding constant Kb). Also noted: species or system calf. To be noted: for Kb compared to that of mitonafide: mitonafide Kb 2.54 × 10^5. As to the method:
The measurements were performed by adding aliquots of DMSO stock solution of the tested compounds to the buffer solution (pH 7.4, 20 mM, 50 mM NaCl, Tris–HCl buffer, DMSO content of the final solutions = 0.54–0.65%) to the final concentration 10 µM. The tested compounds were incubated for 5 min, with increasing concentrations ranging from 0 to 15 µM of ct-DNA at 37 °C. Then, the UV–vis absorption spectra between 300 and 500 nm were recorded using a GBC Cintra10 UV–VIS spectrometer equipped with a GBC Thermocell Peltier Power Supply with the use of a 1-cm-path-length cell. The binding constant was calculated according to the following equation[70]: A0/A−A0= εG/εH−G−εG+ εG/εH−G−εG × 1/Kb[DNA] where Kb is the binding constant; A0 and a are absorbances of the free tested compound and the apparent one; εG and εH–G are their coefficient, respectively; [DNA] is the concentration of DNA in base pairs. The slope to intercept ratio of the plot between A0/A − A0 and 1/[DNA] yielded the binding constant.

Assay [3] deals with ct-DNA. Details: method as in PMID 33803403. As to conditions: unmodified mitonafide and pinafide; cited from earlier work.
The subject of assay [4] is HepG2. Also noted: method as in PMID 31776032. As to conditions: footnote of Table 2, reference compounds; cited from earlier work.
The test system of assay [5] is ct-DNA. Briefly: Circular dichroism (CD) measurements of ct-DNA. The format is binding, calf. As to conditions: increasing concentration of conjugate, r = 0.1–0.5, cacodylate buffer pH 7.0. On the procedure:
The measurements were performed by adding aliquots of DMSO stock solution of the tested compounds to the buffer solution (pH 7.0, 20 mM, cacodylate buffer, DMSO content of the final solutions = 0.22–1.30%). Changes in the CD spectrum of ct-DNA upon the addition of compound were measured at different molar ratios r = [compound]/[ct-DNA]. CD spectra were recorded on a JASCO J-815 CD spectrometer with a JASCO PFD-425S Peltier thermostated cell holder (JASCO, Tokyo, Japan) by using a square quartz cuvette of path length 0.5 cm (0.5 ml) in the 230–400 nm region. The CD profiles reported were an average of three successive scans with a scan time of 200 nm per minute and an appropriately corrected baseline. Temperature was maintained at 20 °C during the experiment.

For assay [6], the system named is ct-DNA. Briefly: Melting temperature (Tm) measurements of ct-DNA. The format is binding, calf. As to conditions: r = [compound]/[ct-DNA] = 0.3, cacodylate buffer pH 7.0; Tm of free ct-DNA 74 °C; error ±0.5 °C. On the procedure: The measurements were carried out by adding aliquots of DMSO stock solution of the tested compounds to the buffer solution (pH 7.0, 20 mM, cacodylate buffer, DMSO content of the final solution = 0.33–0.39%). Tm curves were collected at r = 0.3 (r = [compound]/[ct-DNA]) to assure the dominant binding mode. Thermal melting curves were plotted considering the absorption change at 260 nm as a function of temperature using a GBC Cintra10 UV–VIS spectrometer (Dandenong, Australia) equipped with a GBC Thermocell Peltier Power Supply (Dandenong, Australia) with the use of a 1-cm-path-length cell. The absorbance of the samples was monitored at 260 nm from 35 to 95 °C with a heating rate of 1 °C/min. Tm values are the midpoints or the transition curves determined from the maximum of the first derivative. ΔTm values were calculated by subtracting the Tm of the free nucleic acid from the Tm of the sample. All ΔTm values reported in the study were measured in triplicate. The error in ΔTm was ±0.5 °C.

A further assay has as its system HepG2 cells. Also noted: method as in PMID 31776032. To be noted: earlier N-imide derivatives; cited from earlier work.
Another assay deals with human topoisomerase IIα. Also noted: method as in PMID 35562989. As to conditions: earlier study of 4-carboranyl-1,8-naphthalimides; read-out: anti-Topo II activity IC50; cited from earlier work.

In the assay on HepG2 [1], “4-[(6-[3–(1,7-Dicarba-closo-dodecaborane-1-yl)propanamido]hexyl)amino]-3-nitro-N-[2-(N-pyrrolidinyl)ethyl]-1,8-naphthalimide [Compound 19]” yielded an IC50 of 5.86 ± 0.56 µM.
For the compound “4-[(6-[3–(1,2-Dicarba-closo-dodecaborane-1-yl)propanamido]hexyl)amino]-3-nitro-N-[2-(N-pyrrolidinyl)ethyl]-1,8-naphthalimide [Compound 18]”, the “Kb compared to that of mitonafide” value with ct-DNA [2] is reported as “approximately 1.5 fold”. Further, in the assay with HepG2 [1], the IC50 turned out to be 4.79 ± 0.8 µM.
On to `O=C1c2cccc3cc([N+](=O)[O-])cc(c23)C(=O)N1CCN1CCCC1` [pinafide], for which the ΔTm in the assay with ct-DNA [3] is 6.50 °C. Also, in the assay with HepG2 [4], the IC50 was 1.23 µM.
As for “4-[(2-[3–(1,2-Dicarba-closo-dodecaborane-1-yl)propanamido]ethyl)amino]-N-[2-(dimethylamino)ethyl]-3-nitro-1,8-naphthalimide [Compound 12]”, the “Kb compared to that of mitonafide” value in the assay on ct-DNA [2] is “similar”. Also, the IC50 in the assay on HepG2 [1] amounted to 21.7 ± 0.95 µM. The “change in the CD spectra of ct-DNA” value in the assay with ct-DNA [5] is “did not cause any appreciable change”. Also, in the assay on ct-DNA [6], the “ΔTm ct-DNA” value stood at 3.33 °C.
On to “N-[2–(3,3′-commo-bis(1,2-dicarba-3-cobalta(III)-closo-dodecaborate-1-yl)ethyl)]-1,8-naphthalimide”, for which, in the assay on HepG2 cells, the “intracellular ROS production (fluorescence intensity)” value (“intracellular ROS production” for short) is “approximately twofold increase”.
For “4-[(2-[(1,2-Dicarba-closo-dodecaborane-1-yl)ethylamino]ethyl)amino]-3-nitro-N-[2-(N-pyrrolidinyl)ethyl]-1,8-naphthalimide [Compound 32]”, the “Kb compared to that of mitonafide” value with ct-DNA [2] is reported as “approximately 1.5 fold”. In the assay with HepG2 [1], this compound showed an IC50 of 8.12 ± 0.88 µM. In addition, in the assay with ct-DNA [5], the “change in the CD spectra of ct-DNA” value is “disturbed”. Further, the “ΔTm ct-DNA” value in the assay on ct-DNA [6] amounted to 0.33 °C.
Turning to “4-[(2-[(1,7-Dicarba-closo-dodecaborane-1-yl)ethylamino]ethyl)amino]-N-[2-(dimethylamino)ethyl]-3-nitro-1,8-naphthalimide [Compound 31]”, in the assay on ct-DNA [2] (UV–vis, addition of 1.25–15 µM ct-DNA to 10 µM compound), the bathochromic effect was found to be 6 nm. For the same compound, the “Kb compared to that of mitonafide” value in the assay on ct-DNA [2] is “similar”. The compound also yielded an IC50 with HepG2 [1] of 11.6 ± 0.62 µM. Further, the “change in the CD spectra of ct-DNA” value with ct-DNA [5] is on record as “did not cause any appreciable change”. Further, in the assay with ct-DNA [6], the “ΔTm ct-DNA” value was 1.67 °C.
Regarding “4-[(6-[3–(1,2-Dicarba-closo-dodecaborane-1-yl)propanamido]hexyl)amino]-N-[2-(dimethylamino)ethyl]-3-nitro-1,8-naphthalimide [Compound 16]”, the “Kb compared to that of mitonafide” value with ct-DNA [2] is “approximately 1.5 fold”. The compound further had an IC50 in the assay with HepG2 [1] of 5.12 ± 0.87 µM.
Turning to “4-[(2-[3–(1,7-Dicarba-closo-dodecaborane-1-yl)propanamido]ethyl)amino]-3-nitro-N-[2-(N-pyrrolidinyl)ethyl]-1,8-naphthalimide [Compound 15]”, in the assay on ct-DNA [2], the “Kb compared to that of mitonafide” value is “similar”. Half-maximal inhibition in the assay on HepG2 [1] (IC50) required 9.23 ± 0.35 µM. For the same compound, the “change in the CD spectra of ct-DNA” value in the assay on ct-DNA [5] is recorded as “disturbed”. In the assay with ct-DNA [6], the “ΔTm ct-DNA” value stood at 5.00 °C.
The compound “4-[(2-[(1,2-Dicarba-closo-dodecaborane-1-yl)ethylamino]ethyl)amino]-N-[2-(dimethylamino)ethyl]-3-nitro-1,8-naphthalimide [Compound 30]” returned an IC50 with HepG2 [1] of 4.51 ± 0.66 µM. Besides, in the assay on ct-DNA [5], the “change in the CD spectra of ct-DNA” value is given as “disturbed”. Further, the “ΔTm ct-DNA” value in the assay with ct-DNA [6] is 3.33 °C.
On the same counts, the results for “4-[(2-[3–(1,7-Dicarba-closo-dodecaborane-1-yl)propanamido]ethyl)amino]-N-[2-(dimethylamino)ethyl]-3-nitro-1,8-naphthalimide [Compound 13]” are 9.2 ± 0.68 µM, “did not cause any appreciable change” and 3.67 °C.
On to “4-[(2-[3–(1,2-Dicarba-closo-dodecaborane-1-yl)propanamido]ethyl)amino]-3-nitro-N-[2-(N-pyrrolidinyl)ethyl]-1,8-naphthalimide [Compound 14]”, for which the “Kb compared to that of mitonafide” value in the assay with ct-DNA [2] was “similar”. For the same compound, the IC50 with HepG2 [1] is 8.97 ± 1.13 µM. In the assay with ct-DNA [5], the “change in the CD spectra of ct-DNA” value is on record as “disturbed”. Moreover, the “ΔTm ct-DNA” value in the assay on ct-DNA [6] turned out to be 3.33 °C.
In the case of “N-[3–(1,2-dicarba-closo-dodecaborane-1-yl)propyl]-1,8-naphthalimide”, the “intracellular ROS production” value in the assay with HepG2 cells is listed as “approximately twofold increase”.
Take “4-[(6-[3–(1,7-Dicarba-closo-dodecaborane-1-yl)propanamido]hexyl)amino]-N-[2-(dimethylamino)ethyl]-3-nitro-1,8-naphthalimide [Compound 17]”: the “Kb compared to that of mitonafide” value in the assay with ct-DNA [2] is recorded as “similar”. For the same compound, 8.03 ± 1.25 µM corresponded to half-maximal inhibition in the assay with HepG2 [1] (IC50).
For the compound “N-{[2–(3,3′-commo-bis(1,2-dicarba-3-cobalta(III)-closo-dodecaborate-1-yl)ethyl]-1′-aminoethyl)}-1,8-naphthalimide]”, the “intracellular ROS production” value in the assay with HepG2 cells was “approximately twofold increase”.
Consider “N-[2-(dimethylamino)ethyl]-4-{1-[3-(1,2-dicarba-closo-dodecaborane-1-yl)propyl]-1H-1,2,3-triazol-4-yl}-1,8-naphthalimide”, for which the IC50 on human topoisomerase IIα was 0.58 µM.
Consider “4-[(2-[(1,7-Dicarba-closo-dodecaborane-1-yl)ethylamino]ethyl)amino]-3-nitro-N-[2-(N-pyrrolidinyl)ethyl]-1,8-naphthalimide [Compound 33]”, for which the “changes in the absorbance on addition of ct-DNA” value with ct-DNA [2] (UV–vis, 1.25–15 µM ct-DNA, 10 µM compound) is given as “changes in the absorbance were not observed”. This compound displayed an IC50 with HepG2 [1] of 20.6 ± 3.83 µM. Further, in the assay with ct-DNA [5], the “change in the CD spectra of ct-DNA” value is given as “did not cause any appreciable change”. Also, the “ΔTm ct-DNA” value in the assay on ct-DNA [6] worked out at 0.33 °C.
Consider “N-[2-(N-pyrrolidinyl)ethyl]-4-[(2–(3–(1,2-dicarba-closo-dodecaborane-1-yl)propanamido)ethyl)amino]-1,8-naphthalimide”, for which the IC50 at human topoisomerase IIα was 2.81 µM.

What is called IC50 is the concentration that gives 50% inhibition. In general, ΔTm refers to the change in melting temperature against a reference sample.
